These are literature values, as cited in patent US10987332B2, “Sprayable aqueous composition comprising glyceryl trinitrate” (G. POHL-BOSKAMP GMBH & CO. KG, priority 2013, dated 2021).

For series [1], the system named is Sprague-Dawley rats. Conditions: rat, in vivo.
Series [2] relates to Sprague-Dawley rats. Particulars: RIP (Modules 2-4).

`O=[N+]([O-])O[C@H]1CO[C@H]2[C@@H]1OC[C@H]2O[N+](=O)[O-]` [ISDN, isosorbide dinitrate]: the Infarct size in the series with Sprague-Dawley rats [1] was 7.59±4.38%. The VPB-Score in the series with Sprague-Dawley rats [2] is 4.57.

Consider `O=[N+]([O-])OCC(CO[N+](=O)[O-])O[N+](=O)[O-]` [NTG, nitroglycerin], for which the solubility in water result is “about 1 mg/ml”.
